Laboratory results taken from patent publication US8298543B2, “Identification and application of antibiotic synergy” (priority 2005, dated 2012).

What was measured:
[1] = system: B. anthracis murB-2 antisense strain
[2] = system: S. aureus engineered with murB antisense; assay type: cell-based, Staphylococcus aureus

Compound | IC50 shift (ratio of EC50 with and without xylose) [1] | change of potency / sensitivity in presence of inducer [2]
CO/N=C(\C(=O)N[C@@H]1C(=O)N2C(C(=O)O)=C(COC(C)=O)CS[C@H]12)c1csc(N)n1 [cefotaxime] | 343 | –
CO[C@@]1(NC(=O)Cc2cccs2)C(=O)N2C(C(=O)O)=C(COC(N)=O)CS[C@@H]21 [cefoxitin] | – | increase in potency
Cc1onc(-c2c(Cl)cccc2Cl)c1C(=O)N[C@@H]1C(=O)N2[C@@H]1SC(C)(C)[C@@H]2C(=O)O [dicloxacillin] | – | increase in potency
